Experiments:
Format in all cases: functional, cell-based
THP-1 = experiment: Cytotoxicity against human THP1 cells by MTT assay
HL-60 = experiment: Cytotoxicity against human HL60 cells by MTT assay
A-375 = experiment: Cytotoxicity against human A375 cells by MTT assay
A549 = experiment: Cytotoxicity against human A549 cells by MTT assay

SMILES: CC1=CC(=O)[C@]23O[C@](C)(C=C2C1=O)CC[C@H]1[C@@H](C[C@H]3C)C1(C)C [MULTIFIDONE]
- IC50 (THP-1): 45.6 µM
- IC50 (HL-60): 121 µM
- IC50 (A-375): 159 µM
- IC50 (A549): 127 µM

SMILES: COc1cc([C@@H]2c3cc4c(cc3[C@@H](O[C@@H]3O[C@@H]5CO[C@@H](C)O[C@H]5[C@H](O)[C@H]3O)[C@H]3COC(=O)[C@H]23)OCO4)cc(OC)c1O [ETOPOSIDE]
- IC50 (THP-1): 2.16 µM
- IC50 (HL-60): 1.83 µM
- IC50 (A-375): 3.92 µM
- IC50 (A549): 9.51 µM
